# Test results as given in publication PMC13586173, “Synthetic cannabinoid receptor agonists inhibit the cardiac voltage-gated potassium channel hERG” (Acta Pharmacologica Sinica, 2026).
# Biological target: hERG (KV11.1) (Homo sapiens, UniProt Q12809)
# Experiment: Automated planar patch-clamp (APC, QPatch II 48), voltage-ladder protocol, CHO cells stably expressing human hERG
# Details: ? Unreliable values (fit failed QC, extrapolated)
# From the text: To assess the effect of a large set of SCRAs on hERG (see SI Table I and SI Fig. S1 for a list of the 36 included SCRAs and corresponding structures), we used the automated planar patch-clamp (APC) technique on mammalian Chinese hamster ovary (CHO) cells stably expressing human hERG. […] We employed a voltage-ladder protocol to obtain information on SCRA effects on the channel’s voltage dependence of activation (V50) and maximal conductance (Gmax) (both determined from Boltzmann fits of the instantaneous tail currents; see Methods for details).
# Stably expressing cell lines “CHO-hERG DUO” (here referred to as hERG; gene: KCNH2) and “CHO-KVLQT1/mink” (here referred to as KV7.1/KCNE1; gene: KCNQ1/KCNE1), (B’SYS GmBH, Witterswil, Switzerland) were used to study whole-cell K^+ currents on a QPatch II 48 APC system (Sophion Bioscience A/S, Ballerup, Denmark). Cell culture and passaging were performed in accordance with standard operating procedures. Cells were harvested in serum-free medium with Detachin^TM (Genlantis, CA, USA) immediately prior to experiments. For MPC on transient cell lines, CHO-K1 CCL-61 cells (ATCC, Manassas, VA, USA) were cultured in Ham’s F-12 medium supplemented with 10% fetal bovine serum (FBS) and 100 U/mL penicillin–100 µg/mL streptomycin (Gibco, Thermo Fisher Scientific, Waltham, MA, USA). Transfection was carried out using JetOPTIMUS® reagent (Polyplus, Strasbourg, France) according to the manufacturer’s protocol. Briefly, 80,000 cells were seeded per well in a 12-well plate and transfected with 300 ng of pcDNA3-GFP plasmid, 700 ng of pcDNA3-hERG plasmid with either the wild-type or mutant channels (S624A, S649A, or Y652A), and […] of JetOPTIMUS. After 8 h, cells were detached and reseeded at a density of 30,000 cells per well onto several poly-D-lysine-coated glass coverslips placed in a 12-well plate. For the CB1 receptor activity assay, the AequoScreen® recombinant Chinese hamster ovary (CHO) K1 cell line, stably expressing the human CB1 receptor (ES-110-A), was used (Revvity, Sollentuna, Sweden).
# Automated patch-clamp recordings were performed at 22 °C. Freshly harvested cell suspensions (2–3 million cells/mL) were prepared for experiments by the QPatch II 48 automated cell preparation unit. Cells were centrifuged for 150 s at 150 × g and washed twice with the extracellular recording solution. Cells were handled by the integrated pipetting robot and added to the 48 experiment sites on the planar patch-clamp consumable QPlate. Each experiment site contained an individual pair of recording electrodes and a silicon/glass biochip embedded in the flow channels. Single-cell patch recordings (n = 1 is defined as one single-cell patch) and population patch recordings (up to 10 cells per well, n = 1 is defined as one population patch) were performed for hERG and for KV7.1/KCNE1, respectively. Cells were applied, positioned and sealed to the patch holes by a mild suction protocol; whole-cell access was then achieved by a stronger suction pulse.
# The intracellular solution contained (in mM): 100 KCl, 4.3 CaCl2, 1.4 MgCl2, 25/10 KOH/EGTA, 24 KF, 10 HEPES, and 4 Mg-ATP (hERG) or 4 Na-ATP (KV7.1/KCNE1). […] The compounds were pre-diluted in DMSO, and the final concentration of DMSO (0.3%) was equal in all recording solutions to control for vehicle effects. The compounds made no contact with plastics following dilution in extracellular solution.
# An overview of experimental conditions is provided in SI Table VII, Square voltage pulses in a voltage ladder protocol were used to study current/voltage (I(V)) relationships. Each voltage protocol was first run three times in the presence of vehicle (extracellular solution supplemented with 0.3% DMSO), the 3rd serving as the baseline. Voltage protocols were repeated in the presence of 4 cumulatively rising concentrations of test compound, followed by application of vehicle for recovery.
# hERG (KV11.1), sequence (Q12809 whole entry): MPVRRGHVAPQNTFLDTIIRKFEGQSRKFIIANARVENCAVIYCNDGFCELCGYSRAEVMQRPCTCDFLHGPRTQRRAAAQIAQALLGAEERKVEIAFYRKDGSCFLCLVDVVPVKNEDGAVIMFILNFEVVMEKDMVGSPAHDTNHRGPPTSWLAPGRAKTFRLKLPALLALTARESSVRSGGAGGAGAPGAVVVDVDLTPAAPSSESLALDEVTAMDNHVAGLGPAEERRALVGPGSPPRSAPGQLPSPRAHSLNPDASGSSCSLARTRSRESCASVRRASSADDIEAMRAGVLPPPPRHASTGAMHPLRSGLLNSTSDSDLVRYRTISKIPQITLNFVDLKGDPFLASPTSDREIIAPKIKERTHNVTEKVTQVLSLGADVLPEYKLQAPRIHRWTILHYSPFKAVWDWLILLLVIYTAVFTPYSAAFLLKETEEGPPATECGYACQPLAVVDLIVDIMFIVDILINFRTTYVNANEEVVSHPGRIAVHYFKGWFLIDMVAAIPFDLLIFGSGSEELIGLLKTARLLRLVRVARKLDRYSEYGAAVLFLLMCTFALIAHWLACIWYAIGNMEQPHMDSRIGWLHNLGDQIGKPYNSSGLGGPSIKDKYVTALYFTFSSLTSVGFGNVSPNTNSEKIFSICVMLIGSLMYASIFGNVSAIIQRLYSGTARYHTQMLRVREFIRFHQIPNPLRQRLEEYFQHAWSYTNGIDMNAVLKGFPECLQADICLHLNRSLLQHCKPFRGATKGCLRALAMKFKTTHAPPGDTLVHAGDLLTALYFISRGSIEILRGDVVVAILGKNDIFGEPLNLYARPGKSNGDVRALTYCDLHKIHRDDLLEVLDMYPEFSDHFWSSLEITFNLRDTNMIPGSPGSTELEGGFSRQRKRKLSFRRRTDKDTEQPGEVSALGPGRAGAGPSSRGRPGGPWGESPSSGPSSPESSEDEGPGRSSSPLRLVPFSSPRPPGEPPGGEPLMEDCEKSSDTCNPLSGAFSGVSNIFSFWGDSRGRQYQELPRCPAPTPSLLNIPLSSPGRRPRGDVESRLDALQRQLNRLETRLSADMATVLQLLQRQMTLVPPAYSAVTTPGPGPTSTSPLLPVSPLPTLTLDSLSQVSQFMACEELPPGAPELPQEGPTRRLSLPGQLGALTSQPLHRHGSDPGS
row,Structure (SMILES),"hERG channel Efficacy (max reduction in Gmax) Gmin, marked ?"
1,CCCCCCN1C(=O)C(=NNC(=O)c2ccccc2)c2ccccc21 [BZO-HEXOXIZID],0.00

# Same assay, conditions: best fit; 1 = no reduction of Gmax, 0 = complete reduction; APC, 22 °C
row,Structure (SMILES),hERG channel Efficacy (max reduction in Gmax) Gmin
1,O=C(c1cccc2ccccc12)c1nn(CCCCCF)c2ccccc12 [THJ-2201],0.73
2,COC(=O)[C@@H](NC(=O)c1nn(Cc2ccc(F)cc2)c2ccccc12)C(C)(C)C [MDMB-FUBINACA],0.25
3,C=CCCCn1nc(C(=O)N[C@H](C(=O)OC)C(C)(C)C)c2ccccc21 [MDMB-4en-PINACA],0.27
4,CC(C)[C@H](NC(=O)c1nn(CC2CCCCC2)c2ccccc12)C(N)=O,0.00
5,CC(C)[C@H](NC(=O)c1nn(Cc2ccc(F)cc2)c2ccccc12)C(N)=O [AB-FUBINACA],0.00
6,COC(=O)[C@@H](NC(=O)c1n[nH]c2ccc(Br)cc12)C(C)(C)C [MDMB-5'Br-INACA],0.57
7,COC(=O)[C@@H](NC(=O)c1cn(CCCCF)c2ccccc12)C(C)(C)C [4F-MDMB-BUTICA],0.35

# Same assay, conditions: read-out: hERG channel Potency IC50 (Gmax reduction); APC, 22 °C, best fit
row,Structure (SMILES),IC50 [µM]
1,O=C(c1cccc2ccccc12)c1nn(CCCCCF)c2ccccc12 [THJ-2201],2.04
2,COC(=O)[C@@H](NC(=O)c1nn(Cc2ccc(F)cc2)c2ccccc12)C(C)(C)C [MDMB-FUBINACA],10.2
3,C=CCCCn1nc(C(=O)N[C@H](C(=O)OC)C(C)(C)C)c2ccccc21 [MDMB-4en-PINACA],14.6
4,CC(C)[C@H](NC(=O)c1nn(CC2CCCCC2)c2ccccc12)C(N)=O,51.2
5,CC(C)[C@H](NC(=O)c1nn(Cc2ccc(F)cc2)c2ccccc12)C(N)=O [AB-FUBINACA],30.4
6,COC(=O)[C@@H](NC(=O)c1n[nH]c2ccc(Br)cc12)C(C)(C)C [MDMB-5'Br-INACA],25.3
7,COC(=O)[C@@H](NC(=O)c1cn(CCCCF)c2ccccc12)C(C)(C)C [4F-MDMB-BUTICA],26.2

# Biological target: T1, human CB1 receptor (Homo sapiens, UniProt P21554)
# T1 construct: host or cells: CHO-K1 stably expressing CB1, apoaequorin and Gα16
# Experiment: AequoScreen intracellular calcium release assay, CHO-K1 cells stably expressing CB1
# Format: cell-based
# Details: not given
# T1 sequence (P21554 whole entry): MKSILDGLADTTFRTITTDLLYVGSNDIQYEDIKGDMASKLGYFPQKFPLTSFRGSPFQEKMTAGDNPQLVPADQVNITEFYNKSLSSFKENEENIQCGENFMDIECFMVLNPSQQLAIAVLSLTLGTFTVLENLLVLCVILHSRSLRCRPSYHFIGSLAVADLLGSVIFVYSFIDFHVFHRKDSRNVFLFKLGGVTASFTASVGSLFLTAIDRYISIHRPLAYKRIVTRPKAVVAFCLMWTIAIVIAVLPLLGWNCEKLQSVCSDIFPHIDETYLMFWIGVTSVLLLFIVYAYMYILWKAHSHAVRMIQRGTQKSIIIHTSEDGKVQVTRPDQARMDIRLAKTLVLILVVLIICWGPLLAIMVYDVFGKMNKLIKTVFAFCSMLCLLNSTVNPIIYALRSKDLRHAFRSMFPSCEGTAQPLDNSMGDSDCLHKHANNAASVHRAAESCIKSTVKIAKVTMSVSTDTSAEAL
Structure (SMILES),CB1 EC50 (in words),CB1 receptor Efficacy Emax [% JWH-018]
CCCCCCN1C(=O)C(=NNC(=O)c2ccccc2)c2ccccc21 [BZO-HEXOXIZID],low micromolar,
COC(=O)[C@@H](NC(=O)c1nn(Cc2ccc(F)cc2)c2ccccc12)C(C)(C)C [MDMB-FUBINACA],sub-nanomolar,
CC(C)[C@H](NC(=O)c1nn(CC2CCCCC2)c2ccccc12)C(N)=O,,108

# Same assay, conditions: normalized to maximum of JWH-018; n ≥ 3 (JWH-030 n = 2)
row,Structure (SMILES),CB1 receptor Efficacy Emax [% JWH-018]
1,O=C(c1cccc2ccccc12)c1nn(CCCCCF)c2ccccc12 [THJ-2201],92.8
2,CCCCCCN1C(=O)C(=NNC(=O)c2ccccc2)c2ccccc21 [BZO-HEXOXIZID],84.3
3,COC(=O)[C@@H](NC(=O)c1nn(Cc2ccc(F)cc2)c2ccccc12)C(C)(C)C [MDMB-FUBINACA],103
4,C=CCCCn1nc(C(=O)N[C@H](C(=O)OC)C(C)(C)C)c2ccccc21 [MDMB-4en-PINACA],109
5,CC(C)[C@H](NC(=O)c1nn(Cc2ccc(F)cc2)c2ccccc12)C(N)=O [AB-FUBINACA],108
6,COC(=O)[C@@H](NC(=O)c1n[nH]c2ccc(Br)cc12)C(C)(C)C [MDMB-5'Br-INACA],110
7,COC(=O)[C@@H](NC(=O)c1cn(CCCCF)c2ccccc12)C(C)(C)C [4F-MDMB-BUTICA],115

# Same assay, conditions: normalized to median EC50 of JWH-018; n ≥ 3 (JWH-030 n = 2); read-out: CB1 receptor Potency EC50
row,Structure (SMILES),EC50 [µM]
1,O=C(c1cccc2ccccc12)c1nn(CCCCCF)c2ccccc12 [THJ-2201],0.0456
2,CCCCCCN1C(=O)C(=NNC(=O)c2ccccc2)c2ccccc21 [BZO-HEXOXIZID],5.13
3,COC(=O)[C@@H](NC(=O)c1nn(Cc2ccc(F)cc2)c2ccccc12)C(C)(C)C [MDMB-FUBINACA],0.000795
4,C=CCCCn1nc(C(=O)N[C@H](C(=O)OC)C(C)(C)C)c2ccccc21 [MDMB-4en-PINACA],0.0167
5,CC(C)[C@H](NC(=O)c1nn(Cc2ccc(F)cc2)c2ccccc12)C(N)=O [AB-FUBINACA],0.00894
6,COC(=O)[C@@H](NC(=O)c1n[nH]c2ccc(Br)cc12)C(C)(C)C [MDMB-5'Br-INACA],0.849
7,COC(=O)[C@@H](NC(=O)c1cn(CCCCF)c2ccccc12)C(C)(C)C [4F-MDMB-BUTICA],0.0167

# Same assay, conditions: read-out: CB1 receptor Potency EC50
row,Structure (SMILES),EC50 [µM]
1,CC(C)[C@H](NC(=O)c1nn(CC2CCCCC2)c2ccccc12)C(N)=O,0.00898

# Biological target: KV7.1/KCNE1 (Homo sapiens, UniProt P51787)
# Experiment: Automated patch-clamp (APC, population patch), CHO cells stably expressing human KV7.1/KCNE1
# Format: cell-based
# Details: * Greatest efficacy achieved with a concentration between 10 and 30 µM (no fit)
# Protocol: Both hERG and KV7.1/KCNE1 contribute to cardiomyocyte repolarization (Fig. 1g). Inhibition of KV7.1/KCNE1 alone can be proarrhythmic. Moreover, under conditions with impaired hERG function, upregulation of KV7.1/KCNE1 has been proposed to partially compensate for the loss of hERG [38, 39]. […] To assess if SCRAs also affect KV7.1/KCNE1, we used mammalian CHO cells stably expressing human KV7.1/KCNE1. […] At 10 µM, 7 of the SCRAs caused a significant positive shift in V50 (Fig. 5e), with the largest shift induced by MDMB-[…] (ΔV50 = +10.3 ± 1.6 mV).
# Automated patch-clamp recordings were performed at 22 °C.
# For the KV7.1/KCNE1 voltage ladder protocol (SI Table VII) the solutions were present for 60 s before recording started. KV7.1/KCNE1 cells were kept at a holding voltage of −90 mV, with brief hyperpolarizing steps to −100 mV for 540 ms (to calculate ohmic leakage). […] The time between compound application and the first voltage protocol was 60 s. Time between sweeps was 15 s. The voltage ladder protocol was executed every 220 s.
# For Gmax (rel.), N was set to –1. For ΔV50, N was set to 1.
# KV7.1/KCNE1, sequence (P51787 whole entry): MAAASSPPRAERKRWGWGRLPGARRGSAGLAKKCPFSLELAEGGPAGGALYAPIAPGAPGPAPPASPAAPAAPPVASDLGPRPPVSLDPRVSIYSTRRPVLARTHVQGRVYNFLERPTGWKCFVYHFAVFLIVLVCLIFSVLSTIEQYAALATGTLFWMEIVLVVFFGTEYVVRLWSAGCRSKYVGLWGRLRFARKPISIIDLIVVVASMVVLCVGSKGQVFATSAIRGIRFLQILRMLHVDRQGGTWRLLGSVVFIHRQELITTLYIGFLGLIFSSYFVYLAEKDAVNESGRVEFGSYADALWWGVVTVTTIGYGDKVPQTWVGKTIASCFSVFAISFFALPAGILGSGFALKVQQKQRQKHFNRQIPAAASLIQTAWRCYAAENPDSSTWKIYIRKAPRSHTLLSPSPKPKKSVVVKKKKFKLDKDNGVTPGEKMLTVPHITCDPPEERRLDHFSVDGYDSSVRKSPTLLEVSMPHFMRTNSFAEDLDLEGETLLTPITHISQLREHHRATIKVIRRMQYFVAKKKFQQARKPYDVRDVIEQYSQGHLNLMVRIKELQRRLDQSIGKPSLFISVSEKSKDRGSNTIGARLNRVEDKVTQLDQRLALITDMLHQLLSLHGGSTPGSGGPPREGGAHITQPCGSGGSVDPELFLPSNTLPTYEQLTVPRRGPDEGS
row,Structure (SMILES),"KV7.1/KCNE1 channel Efficacy (max reduction in Gmax) Gmin, marked *"
1,COC(=O)[C@@H](NC(=O)c1nn(Cc2ccc(F)cc2)c2ccccc12)C(C)(C)C [MDMB-FUBINACA],0.59
2,C=CCCCn1nc(C(=O)N[C@H](C(=O)OC)C(C)(C)C)c2ccccc21 [MDMB-4en-PINACA],0.57
3,CC(C)[C@H](NC(=O)c1nn(CC2CCCCC2)c2ccccc12)C(N)=O,0.72
4,COC(=O)[C@@H](NC(=O)c1n[nH]c2ccc(Br)cc12)C(C)(C)C [MDMB-5'Br-INACA],0.74
5,COC(=O)[C@@H](NC(=O)c1cn(CCCCF)c2ccccc12)C(C)(C)C [4F-MDMB-BUTICA],0.87

# Same assay, conditions: APC
row,Structure (SMILES),effect on KV7.1/KCNE1 (in words)
1,O=C(c1cccc2ccccc12)c1nn(CCCCCF)c2ccccc12 [THJ-2201],well-defined concentration–response relationships for both effects

# Same assay, conditions: APC, best fit; read-out: KV7.1/KCNE1 channel Potency IC50 (Gmax reduction)
row,Structure (SMILES),IC50 [µM]
1,O=C(c1cccc2ccccc12)c1nn(CCCCCF)c2ccccc12 [THJ-2201],4.7
2,CCCCCCN1C(=O)C(=NNC(=O)c2ccccc2)c2ccccc21 [BZO-HEXOXIZID],3
3,CC(C)[C@H](NC(=O)c1nn(Cc2ccc(F)cc2)c2ccccc12)C(N)=O [AB-FUBINACA],40.8

# Same assay, conditions: best fit; 1 = no reduction of Gmax, 0 = complete reduction
row,Structure (SMILES),KV7.1/KCNE1 channel Efficacy (max reduction in Gmax) Gmin
1,O=C(c1cccc2ccccc12)c1nn(CCCCCF)c2ccccc12 [THJ-2201],0.59
2,CCCCCCN1C(=O)C(=NNC(=O)c2ccccc2)c2ccccc21 [BZO-HEXOXIZID],0.44
3,CC(C)[C@H](NC(=O)c1nn(Cc2ccc(F)cc2)c2ccccc12)C(N)=O [AB-FUBINACA],0.15

# System: hERG
# Experiment: not given
# Details: cited from earlier work
row,Structure (SMILES),hERG inhibition (in words)
1,CC(C)(C)[C@H](NC(=O)Cc1cn(Cc2ccc(F)cc2)c2ccccc12)C(N)=O [ADB-FUBIATA],inhibit hERG
